Experimental data reported in US20130266605A1, “PEPTIDE INHIBITORS OF CD40L SIGNALING AND USES THEREFOR” (PHYLOGICA LIMITED, priority 2010, published 2013).
“Also recorded” adds a separate entry of the source. Residues, ends and D or L forms follow the SMILES beside them.

Key:
[1] = system: LPS-induced expression of CD86 mediated by the Toll-like receptors TLR 2/4; experiment: LPS-induced CD86 expression control assay; assay type: cell-based; conditions: in words; specificity control; listed as M1—18S
Method: (§1) As a control in these assays, LPS-induced expression of CD86 mediated by the Toll-like receptors TLR 2/4, and TNFα-induced cytoxicity, were also assayed to exclude effects mediated by ligands other than CD40L.

[2] = system: TNFα-induced cytoxicity; experiment: TNFα-induced cytotoxicity control assay; assay type: cell-based; conditions: in words, specificity control
Method: as §1

[3] = molecular target: CD40L-induced CD86 expression on primary B-cells (UniProt P29965); experiment: Inhibition of CD40L-induced CD86 expression on primary B-cells (FACS); conditions: in words
Sequence of CD40L-induced CD86 expression on primary B-cells (P29965 whole entry): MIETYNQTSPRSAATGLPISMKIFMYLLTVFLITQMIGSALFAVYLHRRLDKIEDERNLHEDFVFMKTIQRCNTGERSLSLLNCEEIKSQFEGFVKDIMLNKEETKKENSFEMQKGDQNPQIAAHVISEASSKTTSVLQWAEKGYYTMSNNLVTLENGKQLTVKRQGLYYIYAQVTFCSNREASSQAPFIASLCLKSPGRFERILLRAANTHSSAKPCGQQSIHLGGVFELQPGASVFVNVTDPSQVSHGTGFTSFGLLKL
Sequence of CD40L-induced CD86 expression on primary B-cells (P25942 21-277 partner): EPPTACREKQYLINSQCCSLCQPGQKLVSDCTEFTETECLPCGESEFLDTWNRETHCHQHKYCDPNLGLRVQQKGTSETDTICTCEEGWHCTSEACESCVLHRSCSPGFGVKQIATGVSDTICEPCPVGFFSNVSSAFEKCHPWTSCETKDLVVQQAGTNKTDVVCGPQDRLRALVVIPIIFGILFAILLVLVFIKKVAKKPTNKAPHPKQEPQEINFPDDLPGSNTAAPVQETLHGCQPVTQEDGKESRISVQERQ
Method: In one example, the ability of a peptide, analog or derivative of the invention to inhibit or reduce or delay expression of CD86 on primary B-cells was determined in the presence and absence of the peptides, analogs and derivatives of the invention. In particular, CD86 expression was determined by FACS.

- inhibition of CD40L-induced CD86 expression on primary B-cells [3]: concentration-dependent inhibition
Structure (SMILES): CC[C@H](C)[C@H](NC(=O)[C@H](CO)NC(=O)[C@H](Cc1c[nH]c2ccccc12)NC(=O)[C@H](CCC(N)=O)NC(=O)[C@@H](NC(=O)[C@@H]1CCCN1C(=O)[C@H](Cc1ccccc1)NC(=O)[C@H](Cc1ccccc1)NC(=O)[C@H](Cc1c[nH]c2ccccc12)NC(=O)CNC(=O)[C@H](Cc1ccc(O)cc1)NC(=O)[C@H](CCCCN)NC(=O)[C@H](CC(C)C)NC(=O)[C@@H](NC(=O)[C@H](Cc1c[nH]cn1)NC(=O)[C@H](CO)NC(=O)[C@H](CCCNC(=N)N)NC(=O)[C@H](Cc1ccc(O)cc1)NC(=O)[C@@H]1CCCN1C(=O)[C@@H](NC(=O)[C@H](Cc1ccccc1)NC(=O)[C@@H]1CCCN1C(=O)[C@@H](N)CC(C)C)C(C)C)C(C)C)C(C)C)C(=O)N[C@@H](Cc1ccccc1)C(=O)N[C@@H](C)C(=O)N[C@H](C(=O)N[C@@H](CC(C)C)C(=O)N1CCC[C@H]1C(=O)N[C@@H](Cc1ccccc1)C(=O)N[C@@H](CCC(N)=O)C(=O)N[C@@H](Cc1ccc(O)cc1)C(=O)N[C@@H](CC(C)C)C(=O)N[C@@H](Cc1c[nH]cn1)C(=O)N[C@@H](CCCNC(=N)N)C(=O)N[C@@H](CO)C(=O)N[C@@H](CCCNC(=N)N)C(=O)O)C(C)C [CD40L M1_18s] (H-LPFVPYRSHVLKYGWFFPVQWSIFAVLPFQYLHRSR-OH; N-terminus and C-terminus assumed)
- inhibition of LPS-induced CD86 expression [1]: lack of concentration-dependent inhibition; also recorded: no significant inhibition
- significant inhibition of TNFα-induced cell death / cytoxicity ([2]; listed as M1—18*S): lack of inhibition
- significant inhibition of TNFα-induced cell death / cytoxicity ([2]; listed as M1—18S): none
